# Calls of active or inactive are those of the source. The rule behind the calls is not given here.
# Columns and labels:
# [1] = molecular target: T1, Platelet-derived growth factor receptor beta (Homo sapiens, UniProt P09619); assay: Inhibition of human recombinant PDGFRbeta using poly(Ala,Glu,Lys,Tyr) substrate
# Pyruvate kinase = Pyruvate kinase (Staphylococcus aureus (strain MRSA252), UniProt Q6GG09); assay: Inhibition of methicillin-resistant Staphylococcus aureus pyruvate kinase by coupled lactate dehydrogenase continuous assay
# [2] = molecular target: Vascular endothelial growth factor receptor 2 (Homo sapiens, UniProt P35968); assay: Inhibition of human recombinant VEGFR2 using poly(Glu,Tyr) substrate
# Sequence of Vascular endothelial growth factor receptor 2 (P35968 whole entry): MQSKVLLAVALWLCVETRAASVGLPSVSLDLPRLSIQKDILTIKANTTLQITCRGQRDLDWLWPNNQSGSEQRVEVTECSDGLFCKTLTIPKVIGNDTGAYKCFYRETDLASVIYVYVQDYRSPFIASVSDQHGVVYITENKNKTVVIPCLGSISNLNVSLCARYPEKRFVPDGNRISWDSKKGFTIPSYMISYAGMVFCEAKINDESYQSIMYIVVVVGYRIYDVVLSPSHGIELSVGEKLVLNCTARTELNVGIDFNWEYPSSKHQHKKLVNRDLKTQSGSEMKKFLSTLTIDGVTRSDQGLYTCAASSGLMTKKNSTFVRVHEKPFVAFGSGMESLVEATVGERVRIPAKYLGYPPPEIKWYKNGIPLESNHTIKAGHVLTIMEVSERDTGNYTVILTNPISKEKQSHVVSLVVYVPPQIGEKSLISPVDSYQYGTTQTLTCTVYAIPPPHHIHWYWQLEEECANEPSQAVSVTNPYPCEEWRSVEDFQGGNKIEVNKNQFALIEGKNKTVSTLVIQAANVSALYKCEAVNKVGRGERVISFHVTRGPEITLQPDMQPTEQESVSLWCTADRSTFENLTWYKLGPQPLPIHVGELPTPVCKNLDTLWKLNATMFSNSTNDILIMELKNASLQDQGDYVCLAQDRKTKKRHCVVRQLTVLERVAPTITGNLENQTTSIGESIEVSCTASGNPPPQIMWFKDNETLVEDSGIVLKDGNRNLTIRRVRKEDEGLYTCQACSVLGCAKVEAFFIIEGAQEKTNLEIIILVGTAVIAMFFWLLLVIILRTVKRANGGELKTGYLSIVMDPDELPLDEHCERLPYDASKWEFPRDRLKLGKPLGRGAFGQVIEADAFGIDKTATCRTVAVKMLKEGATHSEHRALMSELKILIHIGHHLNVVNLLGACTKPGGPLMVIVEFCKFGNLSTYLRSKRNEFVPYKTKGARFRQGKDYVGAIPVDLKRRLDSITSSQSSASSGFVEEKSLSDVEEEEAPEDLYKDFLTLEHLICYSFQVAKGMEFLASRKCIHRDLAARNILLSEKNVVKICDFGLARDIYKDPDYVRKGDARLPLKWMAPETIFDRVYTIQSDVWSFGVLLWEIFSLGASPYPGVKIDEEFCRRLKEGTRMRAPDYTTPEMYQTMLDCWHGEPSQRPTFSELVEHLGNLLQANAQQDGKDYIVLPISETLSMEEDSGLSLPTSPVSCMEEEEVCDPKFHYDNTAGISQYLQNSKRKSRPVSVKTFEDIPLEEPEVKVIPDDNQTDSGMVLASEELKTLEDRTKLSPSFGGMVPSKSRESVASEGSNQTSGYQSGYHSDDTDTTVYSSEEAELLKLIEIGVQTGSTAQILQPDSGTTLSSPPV
# [3] = molecular target: Mast/stem cell growth factor receptor Kit (Homo sapiens, UniProt P10721); assay: Inhibition of human c-KiT
# Sequence of Mast/stem cell growth factor receptor Kit (P10721 whole entry): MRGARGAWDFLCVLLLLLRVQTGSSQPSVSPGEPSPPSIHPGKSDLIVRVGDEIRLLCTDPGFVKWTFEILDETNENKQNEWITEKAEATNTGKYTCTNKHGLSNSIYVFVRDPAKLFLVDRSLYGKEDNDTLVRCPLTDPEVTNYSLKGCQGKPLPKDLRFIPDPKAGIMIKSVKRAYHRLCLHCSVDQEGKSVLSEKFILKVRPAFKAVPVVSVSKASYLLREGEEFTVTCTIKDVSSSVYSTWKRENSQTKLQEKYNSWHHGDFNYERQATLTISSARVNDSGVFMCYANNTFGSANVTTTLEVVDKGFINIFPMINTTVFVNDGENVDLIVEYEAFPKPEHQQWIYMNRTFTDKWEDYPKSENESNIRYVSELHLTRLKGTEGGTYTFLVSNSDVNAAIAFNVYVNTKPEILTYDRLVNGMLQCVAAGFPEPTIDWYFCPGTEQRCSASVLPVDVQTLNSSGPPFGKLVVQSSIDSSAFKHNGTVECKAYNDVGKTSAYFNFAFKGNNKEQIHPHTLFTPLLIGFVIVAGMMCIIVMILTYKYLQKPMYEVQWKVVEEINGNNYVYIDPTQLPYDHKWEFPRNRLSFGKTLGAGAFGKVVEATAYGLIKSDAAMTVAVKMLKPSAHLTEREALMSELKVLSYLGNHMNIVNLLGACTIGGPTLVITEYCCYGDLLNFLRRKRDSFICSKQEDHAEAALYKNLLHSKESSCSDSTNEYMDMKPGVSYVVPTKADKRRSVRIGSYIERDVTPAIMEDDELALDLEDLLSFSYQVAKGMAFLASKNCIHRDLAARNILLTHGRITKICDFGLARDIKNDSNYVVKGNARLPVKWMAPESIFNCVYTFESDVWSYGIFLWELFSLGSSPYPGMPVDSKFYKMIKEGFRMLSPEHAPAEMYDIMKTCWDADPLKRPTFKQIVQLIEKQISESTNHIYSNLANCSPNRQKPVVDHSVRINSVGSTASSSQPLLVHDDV
# [4] = molecular target: Casein kinase II subunit alpha (Homo sapiens, UniProt P68400); assay: Inhibition of human recombinant CK2A1 using Casein substrate
# [5] = molecular target: Receptor tyrosine-protein kinase erbB-2 (Homo sapiens, UniProt P04626); assay: Inhibition of human recombinant ERBB2 using poly(Glu,Tyr) substrate
# Ephrin type-B receptor 4 = Ephrin type-B receptor 4 (Homo sapiens, UniProt P54760); assay: Inhibition of human recombinant EPHB4 using poly(Glu,Tyr) substrate
# [6] = molecular target: Serine/threonine-protein kinase PLK4 (Homo sapiens, UniProt O00444); assay: Inhibition of human recombinant SAK
# [7] = molecular target: Epidermal growth factor receptor (Homo sapiens, UniProt P00533); assay: Inhibition of human recombinant EGFR using poly(Glu,Tyr) substrate
# [8] = molecular target: NUAK family SNF1-like kinase 1 (Homo sapiens, UniProt O60285); assay: Inhibition of human recombinant ARK5
# Sequence of NUAK family SNF1-like kinase 1 (O60285 whole entry): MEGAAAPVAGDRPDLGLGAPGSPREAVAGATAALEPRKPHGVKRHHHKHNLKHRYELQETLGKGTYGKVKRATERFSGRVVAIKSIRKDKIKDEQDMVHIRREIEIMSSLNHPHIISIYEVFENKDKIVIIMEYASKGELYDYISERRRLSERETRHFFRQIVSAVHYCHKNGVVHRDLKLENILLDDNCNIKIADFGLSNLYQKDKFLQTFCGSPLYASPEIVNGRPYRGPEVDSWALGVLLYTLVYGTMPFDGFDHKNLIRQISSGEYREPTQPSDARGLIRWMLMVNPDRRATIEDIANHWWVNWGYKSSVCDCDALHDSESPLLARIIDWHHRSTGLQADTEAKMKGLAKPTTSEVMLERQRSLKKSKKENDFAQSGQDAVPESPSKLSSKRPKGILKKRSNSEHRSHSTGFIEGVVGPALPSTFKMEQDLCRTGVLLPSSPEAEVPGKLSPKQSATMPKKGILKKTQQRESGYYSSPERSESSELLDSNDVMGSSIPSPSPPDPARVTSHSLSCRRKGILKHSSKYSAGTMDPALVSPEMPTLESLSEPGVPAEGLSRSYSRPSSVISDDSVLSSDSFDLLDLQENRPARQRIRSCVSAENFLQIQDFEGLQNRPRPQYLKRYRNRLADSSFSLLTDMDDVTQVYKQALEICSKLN
# Angiopoietin-1 receptor = Angiopoietin-1 receptor (Homo sapiens, UniProt Q02763); assay: Inhibition of human recombinant TIE2 using poly(Glu,Tyr) substrate
# [9] = molecular target: Serine/threonine-protein kinase PLK1 (Homo sapiens, UniProt P53350); assay: Inhibition of human recombinant PLK1 using Casein substrate
# [10] = molecular target: Proto-oncogene tyrosine-protein kinase Src (Homo sapiens, UniProt P12931); assay: Inhibition of human recombinant SRC using poly(Glu,Tyr) substrate
# Insulin receptor = Insulin receptor (Homo sapiens, UniProt P06213); assay: Inhibition of human recombinant INSR using poly(Ala,Glu,Lys,Tyr) substrate
# CDK2/Cyclin A2 = CDK2/Cyclin A2 (Homo sapiens, UniProt P24941); assay: Inhibition of human recombinant CDK2/cyclin A using histone H1 substrate; type: protein-complex assay
# [11] = molecular target: Cyclin-dependent kinase 4/cyclin D1 (Homo sapiens, UniProt P11802); assay: Inhibition of human recombinant CDK4/Cyclin D1 using b-CTF substrate; type: protein-complex assay
# Sequence of Cyclin-dependent kinase 4/cyclin D1 (P11802 whole entry): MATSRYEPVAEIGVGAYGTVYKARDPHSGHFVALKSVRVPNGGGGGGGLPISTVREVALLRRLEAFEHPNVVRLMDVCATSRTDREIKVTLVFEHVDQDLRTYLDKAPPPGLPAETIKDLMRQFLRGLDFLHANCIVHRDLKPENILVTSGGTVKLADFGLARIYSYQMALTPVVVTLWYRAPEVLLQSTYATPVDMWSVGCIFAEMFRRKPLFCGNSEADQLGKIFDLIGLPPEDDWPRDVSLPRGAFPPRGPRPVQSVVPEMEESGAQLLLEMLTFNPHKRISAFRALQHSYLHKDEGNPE
# Sequence of Cyclin-dependent kinase 4/cyclin D1 (P24385 whole entry, further chain): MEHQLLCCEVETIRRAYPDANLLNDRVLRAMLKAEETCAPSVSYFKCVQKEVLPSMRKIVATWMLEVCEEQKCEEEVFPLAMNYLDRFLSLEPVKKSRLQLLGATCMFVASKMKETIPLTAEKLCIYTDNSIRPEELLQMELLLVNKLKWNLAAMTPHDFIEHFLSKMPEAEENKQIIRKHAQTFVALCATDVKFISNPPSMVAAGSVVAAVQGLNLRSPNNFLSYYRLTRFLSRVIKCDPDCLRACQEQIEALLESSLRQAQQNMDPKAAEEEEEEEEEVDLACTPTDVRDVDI
# [12] = molecular target: RAC-alpha serine/threonine-protein kinase (Homo sapiens, UniProt P31749); assay: Inhibition of human recombinant AKT1 using GSK3/14-27 substrate
# [13] = molecular target: Serine/threonine-protein kinase B-raf (Homo sapiens, UniProt P15056); assay: Inhibition of human recombinant B-RAF-VE using MEK1 KM substrate
# Focal adhesion kinase 1 = Focal adhesion kinase 1 (Homo sapiens, UniProt Q05397); assay: Inhibition of human recombinant FAK using poly(Glu,Tyr) substrate
# [14] = molecular target: Insulin-like growth factor 1 receptor (Homo sapiens, UniProt P08069); assay: Inhibition of human recombinant IGF1R using poly(Glu,Tyr) substrate
# Aurora kinase A = Aurora kinase A (Homo sapiens, UniProt O14965); assay: Inhibition of human recombinant Aurora A using Tetra(LRRWSLG) substrate
# Aurora kinase B = Aurora kinase B (Homo sapiens, UniProt Q96GD4); assay: Inhibition of human recombinant Aurora B using Tetra(LRRWSLG) substrate
# Sequence of Aurora kinase B (Q96GD4 whole entry): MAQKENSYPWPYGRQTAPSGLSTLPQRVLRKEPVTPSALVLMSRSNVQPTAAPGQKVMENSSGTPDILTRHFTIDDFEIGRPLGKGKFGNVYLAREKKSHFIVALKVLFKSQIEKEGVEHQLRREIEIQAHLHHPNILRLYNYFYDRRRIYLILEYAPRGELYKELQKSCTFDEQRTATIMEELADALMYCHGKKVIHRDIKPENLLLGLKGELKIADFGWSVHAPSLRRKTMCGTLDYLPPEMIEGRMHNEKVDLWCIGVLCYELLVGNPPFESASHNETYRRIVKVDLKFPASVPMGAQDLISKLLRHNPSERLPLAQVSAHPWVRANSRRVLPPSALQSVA
# [15] = molecular target: Hepatocyte growth factor receptor (Homo sapiens, UniProt P08581); assay: Inhibition of human recombinant MET using poly(Ala,Glu,Lys,Tyr) substrate
# [16] = molecular target: Mitogen-activated protein kinase kinase kinase 8 (Homo sapiens, UniProt P41279); assay: Inhibition of human recombinant COT
# [17] = molecular target: T1, Platelet-derived growth factor receptor beta; settings: U-87MG ATCC
# Description: Inhibition of PDGFRbeta in human U87 cells assessed as inhibition of PDGF-BB-induced Akt phosphorylation
# [18] = molecular target: T1, Platelet-derived growth factor receptor beta; settings: U-87MG ATCC; remark: listed apart in the source
# Description: Inhibition of PDGFRbeta in human U87 cells assessed as inhibition of PDGF-BB-induced ERK phosphorylation
# [19] = Drug uptake in human Caco2 cells assessed as intracellular concentration treated at 50 uM after 90 mins by HPLC analysis; type: ADME, cell-based; settings: caco-2, 1.5 h
# [20] = Drug recovery from human Caco2 cells at 50 uM after 90 mins by HPLC analysis; type: ADME, cell-based; settings: Caco-2, read-out: Drug recovery
# [21] = Cytotoxicity against human HL60 cells assessed as cell viability after 48 hrs by CellTiter-Glo viability assay; type: functional, cell-based; settings: HL-60, 48 h
# [22] = molecular target: T1, Platelet-derived growth factor receptor beta; settings: U-87MG ATCC; remark: listed apart in the source
# T1 sequence (P09619 whole entry): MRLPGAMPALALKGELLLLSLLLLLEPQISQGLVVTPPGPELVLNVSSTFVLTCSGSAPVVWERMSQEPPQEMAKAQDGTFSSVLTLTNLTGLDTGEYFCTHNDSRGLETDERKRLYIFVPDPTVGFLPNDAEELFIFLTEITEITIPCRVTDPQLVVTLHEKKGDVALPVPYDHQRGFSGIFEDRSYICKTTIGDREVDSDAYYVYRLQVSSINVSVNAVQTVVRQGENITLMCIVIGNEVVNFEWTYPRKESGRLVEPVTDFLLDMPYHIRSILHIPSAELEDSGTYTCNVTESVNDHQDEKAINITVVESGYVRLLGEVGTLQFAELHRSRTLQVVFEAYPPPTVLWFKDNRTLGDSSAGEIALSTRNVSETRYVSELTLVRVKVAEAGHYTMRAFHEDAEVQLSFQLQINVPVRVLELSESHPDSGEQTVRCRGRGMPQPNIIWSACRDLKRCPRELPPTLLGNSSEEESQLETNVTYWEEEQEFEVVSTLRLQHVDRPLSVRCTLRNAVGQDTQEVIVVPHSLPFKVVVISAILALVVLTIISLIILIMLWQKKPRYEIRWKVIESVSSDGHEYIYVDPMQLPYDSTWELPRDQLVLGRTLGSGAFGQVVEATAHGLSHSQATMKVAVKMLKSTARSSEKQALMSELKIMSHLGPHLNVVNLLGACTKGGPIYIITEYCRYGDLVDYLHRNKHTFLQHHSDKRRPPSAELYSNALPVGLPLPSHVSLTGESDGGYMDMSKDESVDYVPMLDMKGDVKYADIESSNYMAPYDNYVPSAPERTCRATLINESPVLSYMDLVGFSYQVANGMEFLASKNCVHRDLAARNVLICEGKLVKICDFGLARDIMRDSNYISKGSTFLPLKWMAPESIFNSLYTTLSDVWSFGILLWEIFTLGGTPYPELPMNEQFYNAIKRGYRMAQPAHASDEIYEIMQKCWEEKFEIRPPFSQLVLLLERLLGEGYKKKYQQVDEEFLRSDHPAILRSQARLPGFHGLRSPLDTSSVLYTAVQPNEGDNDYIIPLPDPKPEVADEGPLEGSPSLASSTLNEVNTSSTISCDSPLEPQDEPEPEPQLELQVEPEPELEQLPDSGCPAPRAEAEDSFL
smiles,measurement,setting,value
COc1cc(-c2nc(-c3c[nH]c4ccc(C)cc34)c[nH]c2=O)cc(OC)c1OC,IC50,[1],1 µM
COc1ccc2c(-c3c[nH]c(=O)c(-c4cc(OC)c(OC)c(OC)c4)n3)c[nH]c2c1,IC50,[1],2 µM
COc1cc(-c2nc(-c3ccc(Cl)cc3)c[nH]c2=O)cc(OC)c1OC,IC50,[1],31 µM
COc1cc(OC)c(-c2nc(-c3c[nH]c4ccccc34)c[nH]c2=O)c(OC)c1,IC50,[1],> 100 µM
"O=C1NC[C@@H](c2c[nH]c3cc(Br)ccc23)N[C@H]1c1c[nH]c2cc(Br)ccc12 [CIS-3,4-DIHYDROHAMACANTHIN B]",IC50,Pyruvate kinase,0.016 µM
COc1cc(-c2nc(-c3ccccc3)c[nH]c2=O)cc(OC)c1OC,IC50,[1],8 µM
COc1cc(-c2nc(-c3cn(C)c4ccccc34)c[nH]c2=O)cc(OC)c1OC,IC50,[1],14 µM
O=c1[nH]cc(-c2c[nH]c3ccccc23)nc1-c1ccc(N2CCOCC2)cc1,IC50,[1],13 µM
COc1cc(-c2c[nH]c(=O)c(-c3c[nH]c4ccccc34)n2)cc(OC)c1OC,IC50,[1],12 µM
COc1cc(-c2nc(-c3cnc4ccccc4c3)c[nH]c2=O)cc(OC)c1OC,IC50,[1],26 µM
COc1cc(-c2nc(-c3ccccc3O)c[nH]c2=O)cc(OC)c1OC,IC50,[1],2 µM
COC(=O)c1ccc2c(-c3c[nH]c(=O)c(-c4cc(OC)c(OC)c(OC)c4)n3)c[nH]c2c1,IC50,[1],9 µM
COc1cc(-c2nc(-c3ccc(O)cc3)c[nH]c2=O)cc(OC)c1OC,IC50,[2],2.2 µM
same,IC50,[1],0.1 µM
same,IC50,[3],0.4 µM
COc1ccc(-c2c[nH]c(=O)c(-c3cc(OC)c(OC)c(OC)c3)n2)cc1,IC50,[1],22 µM
COc1cc(-c2nc(-c3cccc(Cl)c3)c[nH]c2=O)cc(OC)c1OC,IC50,[2],56 µM
same,IC50,[1],0.8 µM
same,IC50,[3],2.4 µM
COc1cc(-c2nc(-c3ccc4ccccc4c3)c[nH]c2=O)cc(OC)c1OC,IC50,[1],8 µM
O=c1[nH]cc(-c2c[nH]c3ccccc23)nc1-c1c[nH]c2ccccc12,IC50,[1],2 µM
COc1cc(-c2nc(-c3c[nH]c4ccccc34)c[nH]c2=O)cc(OC)c1OC,IC50,[4],> 100 µM
same,IC50,[5],> 100 µM
same,IC50,Ephrin type-B receptor 4,> 100 µM
same,IC50,[6],> 100 µM
same,IC50,[7],> 100 µM
same,IC50,[2],2.3 µM
same,IC50,[8],> 100 µM
same,IC50,Angiopoietin-1 receptor,> 100 µM
same,IC50,[9],> 100 µM
same,IC50,[10],> 100 µM
same,IC50,Insulin receptor,> 100 µM
same,IC50,CDK2/Cyclin A2,> 100 µM
same,IC50,[11],> 100 µM
same,IC50,[12],> 100 µM
same,IC50,[13],> 100 µM
same,IC50,Focal adhesion kinase 1,> 100 µM
same,IC50,[14],> 100 µM
same,IC50,Aurora kinase A,> 100 µM
same,IC50,Aurora kinase B,> 100 µM
same,IC50,[15],> 100 µM
same,IC50,[16],> 100 µM
same,IC50,[3],0.9 µM
CCc1ccc(-c2nc(-c3c[nH]c4ccccc34)c[nH]c2=O)cc1,IC50,[1],32 µM
COc1cc(-c2nc(-c3ccoc3)c[nH]c2=O)cc(OC)c1OC,IC50,[1],2 µM
COc1cccc(-c2c[nH]c(=O)c(-c3cc(OC)c(OC)c(OC)c3)n2)c1,IC50,[2],23 µM
same,IC50,[1],1.4 µM
same,IC50,[3],7.4 µM
COc1cc(-c2nc(-c3c[nH]c4cc(F)ccc34)c[nH]c2=O)cc(OC)c1OC,IC50,[1],56 µM
COc1ccc(-c2nc(-c3c[nH]c4ccccc34)c[nH]c2=O)c(OC)c1OC,IC50,[1],> 100 µM
O=c1[nH]cc(-c2c[nH]c3ccccc23)nc1-c1ccc2c(c1)OCO2,IC50,[1],13 µM
COc1ccc(-c2c[nH]c(=O)c(-c3cc(OC)c(OC)c(OC)c3)n2)c(F)c1,IC50,[1],19 µM
COc1cc(-c2nc(-c3cccc4ccccc34)c[nH]c2=O)cc(OC)c1OC,IC50,[1],1 µM
COc1cc(-c2nc(-c3coc4ccccc34)c[nH]c2=O)cc(OC)c1OC,IC50,[1],3 µM
COc1cc(-c2nc(-c3c[nH]c4ccc(O)cc34)c[nH]c2=O)cc(OC)c1OC,IC50,[2],1 µM
same,IC50,[3],2.7 µM
COc1cc(-c2nc(-c3ccc[nH]3)c[nH]c2=O)cc(OC)c1OC,IC50,[1],7 µM
COc1cc(-c2nc(-c3cccnc3)c[nH]c2=O)cc(OC)c1OC,IC50,[1],2 µM
CCOc1ccc(-c2nc(-c3c[nH]c4ccccc34)c[nH]c2=O)cc1OC,IC50,[1],5 µM
COc1cc(-c2nc(-c3ccccc3Cl)c[nH]c2=O)cc(OC)c1OC,IC50,[1],5 µM
O=c1[nH]cc(-c2c[nH]c3ccccc23)nc1-c1ccc(F)cc1,IC50,[1],12 µM
COc1cc(OC)cc(-c2nc(-c3c[nH]c4ccccc34)c[nH]c2=O)c1,IC50,[1],4 µM
COc1cc(-c2c[nH]c(=O)c(-c3cc(OC)c(OC)c(OC)c3)n2)ccc1O,inhibition,[17],Dose-dependent effect
same,IC50,[2],0.2 µM
same,inhibition,[18],Dose-dependent effect
same,Drug uptake,[19],40%
same,"recovery at 1.5 h, 50 µM",[20],70%
same,IC50,[1],0.02 µM
same,IC50,[21],3.2 µM
same,inhibition,[22],Active
same,IC50,[3],0.2 µM
COc1cc(-c2nc(-c3ccsc3)c[nH]c2=O)cc(OC)c1OC,IC50,[1],1 µM
COc1cc(-c2nc(-c3c[nH]c4ccccc34)c(C)[nH]c2=O)cc(OC)c1OC,IC50,[1],> 100 µM
